Source: patent publication US20250064762A1, “A SUBSTITUTED AROMATIC DICARBONIC ACID AMIDE AS AN INHIBITOR OF THE FERROPTOSIS SUPPRESSOR PROTEIN-1 (FSP1)” (JULIUS-MAXIMILIANS-UNIVERSITÄT WÜRZBURG, priority 2021, published 2025)

Key:
[1] = test system: FSP1-WT or FSP1-KO HT1080 cells; experiment: FIN-induced ferroptosis in FSP1-WT or FSP1-KO cells; format: cell-based, human; settings: iFSP1 10 μM, CPBA 100 μM; for extent of sensitization to ferroptosis in FSP1-WT cells: FIN56, BSO or RSL3, 16 h; for additional effect in FSP1-deficient cells: FSP1-KO HT1080
Description: The following HT1080 fibrosarcoma cell lines were generated using CRISPR/Cas9 technology, as previously described (Doll et al., 2019): HT1080 GPX4-knockout (KO) cells (maintained in the presence of 100 μM α-tocopherol); HT1080 GPX4 knockout cells overexpressing FSP1 (GPX4-KO/FSP1-OE); GPX4-KO cells overexpressing FSP1 and re-expressing GPX4 (GPX4-KO/FSP1-OE/GPX4-OE); HT1080 FSP1-WT or FSP1-KO cells; and HT1080 FSP1-KO cells reconstituted with either FSP1-WT or FSP1-G2A. LOX-IMVI (BRAF V600E heterozygous human melanoma cells) expressing either the Venus mock vector or FSP1-Venus (Doll et al., 2019) were grown in RPMI-1640 supplemented with 10% FCS, 2 mM L-glutamine and Pen/Strep.
Cells were seeded onto 96-well plates (5,000 cells per well), and treated with serial dilutions of ferroptosis-inducing compounds (erastin, BSO, RSL3, FIN56) or cytotoxic drugs (staurosporine, nocodazole, tunicamycin, paclitaxel, etoposide, menadione, rotenone, FCCP, carboplatin) in the absence or presence of CPBA or iFSP1 (100 μM or 10 μM, respectively; unless stated otherwise) or the DMSO solvent control. Ferroptotic cell death was evaluated by incubating in the absence or presence of liproxstatin-1 (100 nM), ferrostatin-1 (200 nM), or deferoxamine (100 μM). Cell viability was assessed after 16 h using AquaBluer as an indicator of viable cells according to the manufacturer's recommendations (MultiTarget Pharmaceuticals, LLC). Fluorescence (excitation, 540 nm; emission, 590 nm) was analyzed on a Clariostar microplater reader.
We next performed comparative experiments to compare the effect of CPBA with the effect of the small molecule FSP1 inihibitor iFSP1. To this end, we incubated FSP1-WT or FSP1-KO HT1080 cells with FIN56 (see FIG. 15), BSO (see FIG. 16) or RSL3 (see FIG. 17) to induce ferroptosis as described above. Lack of FSP1 expression in FSP1-KO cell lines was confirmed by Western Blot as described above (see FIG. 14).
Next, we compared the treatment of FSP1-WT and FSP1-KO cells with either iFSP1 or with CPBA (see FIGS. 15, 16 and 17).

human FSP1 = biological target: T1, human FSP1 (Homo sapiens, UniProt Q9BRQ8); experiment: In vitro FSP1 oxidoreductase (NADH consumption) assay, human FSP1; format: biochemical; settings: resazurine or coQ1 as electron acceptor
T1 construct: His6 (N, cleaved yes); made in house; host or cells: Escherichia coli BL21 pG-Tf2
T1 sequence (Q9BRQ8 1-373): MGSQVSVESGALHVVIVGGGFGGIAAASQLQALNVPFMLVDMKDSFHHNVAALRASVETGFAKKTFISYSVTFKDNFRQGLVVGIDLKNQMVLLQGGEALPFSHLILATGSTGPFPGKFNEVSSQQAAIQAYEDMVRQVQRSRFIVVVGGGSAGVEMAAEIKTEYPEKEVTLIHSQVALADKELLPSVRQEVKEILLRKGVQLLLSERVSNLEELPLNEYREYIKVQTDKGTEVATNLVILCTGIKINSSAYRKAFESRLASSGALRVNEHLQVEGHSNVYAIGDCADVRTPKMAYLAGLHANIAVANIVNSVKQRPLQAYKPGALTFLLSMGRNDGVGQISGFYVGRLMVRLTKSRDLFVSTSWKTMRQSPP
Description: FSP1 activity assays were performed using recombinant, purified murine or human FSP1, NADH, and resazurine or coenzyme-Q1 (coQ1) as electron acceptor molecules. The following conditions were used: 200 μM resazurine were reduced with 750 nM mFSP1 or 150 nM hFSP1; 100 μM coQ1 was reduced with 400 nM mFSP1; and 137 μM coQ1 were reduced with 200 nM hFSP1. The consumption of NADH (500 μM) was measured at 340 nm in phosphate-buffered saline (80 mM Na3PO4, 300 mM NaCl; pH 7.0) at room temperature on a CLARIOstar microplate reader (BMG Labtech). Initial rates were determined, and data were fitted by linear regression using GraphPad Prism software, version 9.1.2.
In order to determine inhibition of FSP1 by CPBA, FSP1 activity was measured […] either CPBA or iFSP1 as a positive control. In vitro FSP1 oxidoreductase activity assays were performed using recombinant, purified murine or human FSP1, NADH, and resazurine or coenzyme-Q1 (coQ1) as electron acceptor molecules as described above (see FIG. 19).
In vitro FSP1 activity assays with human (see FIG. 22 C) or murine (see FIG. 22 D) FSP1 were performed as described above. Shown are NADH consumption assays using recombinant, purified human or mouse FSP1 (hFSP1, mFSP1) and resazurine or coenzyme-Q1 (CoQ1) as electron acceptor molecules.

Structure (SMILES): O=C(Nc1ccccc1C(=O)O)c1ccc(Oc2ccc(C(=O)Nc3ccccc3C(=O)O)cc2)cc1 [CPBA, 2-[[4-[4-[(2-carboxyphenyl)carbamoyl]phenoxy]benzoyl]amino]-benzoic acid]
- extent of sensitization to ferroptosis in FSP1-WT cells [1]: comparable to the effect of FSP1-deficiency
- additional effect in FSP1-deficient cells [1]: no additional effect of iFSP1 or CPBA is observed in FSP1-deficient cells
- inhibition of human FSP1 activity (human FSP1): inhibits human and murine FSP1 activity

Structure (SMILES): Cc1ccc(-c2c(C#N)c(N)n3c(nc4ccccc43)c2C#N)cc1 [iFSP1, reference compound]
- extent of sensitization to ferroptosis in FSP1-WT cells [1]: slightly smaller than the effect of CBPA in all conditions
- additional effect in FSP1-deficient cells [1]: no additional effect of iFSP1 or CPBA is observed in FSP1-deficient cells
- inhibition of human FSP1 activity (human FSP1): is an inhibitor of human FSP1
